This is an account of results in US20080139620A1, “Pyrazole Derivatives For The Inhibition Of Cdk's And Gsk's” (ASTEX THERAPEUTICS LIMITED, priority 2005, published 2008).

pIC50: −log10 of the molar value.

The target of one data set is Activated CDK2/CyclinA (Homo sapiens, UniProt P24941). The experiment in a line: Activated CDK2/CyclinA kinase inhibitory activity assay. Type of data set: biochemical. How it is done:
Compounds of the invention were tested for kinase inhibitory activity using the following protocol.
The reaction is allowed to proceed for 2 to 4 hours before being stopped with an excess of ortho-phosphoric acid (5 μl at 2%). γ^33P-ATP which remains unincorporated into the histone H1 is separated from phosphorylated histone H1 on a Millipore MAPH filter plate. The wells of the MAPH plate are wetted with 0.5% orthophosphoric acid, and then the results of the reaction are filtered with a Millipore vacuum filtration unit through the wells. Following filtration, the residue is washed twice with 200 μl of 0.5% orthophosphoric acid. Once the filters have dried, 20 μl of Microscint 20 scintillant is added, and then counted on a Packard Topcount for 30 seconds.

In another data set the target is T1, GSK3-β (Homo sapiens, UniProt P49841).
T1 construct: purchased Upstate Discovery
T1 sequence (P49841 whole entry): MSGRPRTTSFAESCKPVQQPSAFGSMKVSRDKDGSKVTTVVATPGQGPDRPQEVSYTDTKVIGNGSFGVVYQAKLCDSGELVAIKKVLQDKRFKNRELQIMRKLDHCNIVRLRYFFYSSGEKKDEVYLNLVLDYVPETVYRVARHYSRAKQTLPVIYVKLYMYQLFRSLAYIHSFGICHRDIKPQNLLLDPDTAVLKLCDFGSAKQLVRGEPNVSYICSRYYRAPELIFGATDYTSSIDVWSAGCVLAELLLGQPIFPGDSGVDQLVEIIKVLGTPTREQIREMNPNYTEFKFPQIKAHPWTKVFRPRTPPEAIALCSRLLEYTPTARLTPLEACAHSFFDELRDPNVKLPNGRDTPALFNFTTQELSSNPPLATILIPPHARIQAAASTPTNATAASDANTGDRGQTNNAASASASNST
The experiment in a line: GSK3-B kinase inhibitory activity assay. Type of data set: biochemical. Conditions: read-out: GSK3β IC50. The protocol:
The reaction is allowed to proceed for 3 hours (GSK3-β) before being stopped with an excess of ortho-phosphoric acid (5 μl at 2%). The filtration procedure is as for Activated CDK2/CyclinA assay above.

The test system of a further data set is HCT-116 cell line. Briefly: Anti-proliferative activity, Alamar Blue assay. It counts as cell-based, human. Conditions: for pIC50: HCT-116 human colon carcinoma, 72 hours, read-out: HCT-116 cell proliferation IC50. The protocol: The anti-proliferative activities of compounds of the invention can be determined by measuring the ability of the compounds to inhibition of cell growth in a number of cell lines. […] The method is based on the ability of viable cells to reduce resazurin to its fluorescent product resorufin. For each proliferation assay cells are plated onto 96 well plates and allowed to recover for 16 hours prior to the addition of inhibitor compounds for a further 72 hours. […] In the case of the non-proliferating cell assay cells are maintained at confluence for 96 hour prior to the addition of inhibitor compounds for a further 72 hours. The number of viable cells is determined by Alamar Blue assay as before. Cell lines can be obtained from the ECACC (European Collection of cell Cultures).
(In general: The colour change of resazurin is a common sign of viable cells or microbes.)

Data set [1] deals with human tumour derived cell lines. The experiment in a line: Xenograft studies, human tumour derived cell lines implanted sub-cutaneously. It counts as in vivo, nude mice. Conditions: dosed orally. An excerpt:
These biomarkers include suppression of phosphorylation of substrates of the cyclin dependent kinases e.g. retinoblastoma protein.
In general terms: Xenograft models place foreign cells or tissue in a host animal.

The nature of data set [2]: Determination of oral bioavailability. Type of data set: in vivo. Particulars: BALB/c, mouse, plasma, mice, 5 mg/kg PO vs 1 mg/kg IV. How it is done:
The oral bioavailability of the compounds of formula (I) may be determined as follows.
The test compound is administered as a solution both I.V. and orally to balb/c mice at the following dose level and dose formulations; • 1 mg/kg IV formulated in 10% DMSO/90% (2-hydroxypropyl)-β-cyclodextrin (25% w/v); and • 5 mg/kg PO formulated in 10% DMSO/20% water/70% PEG200.
At various time points after dosing, blood samples are taken in heparinised tubes and the plasma fraction is collected for analysis. The analysis is undertaken by LC-MS/MS after protein precipitation and the samples are quantified by comparison with a standard calibration line constructed for the test compound. The area under the curve (AUC) is calculated from the plasma level vs time profile by standard methods. The oral bioavailability as a percentage is calculated from the following equation: […]

On to `CS(=O)(=O)N1CCC(NC(=O)c2n[nH]cc2NC(=O)c2c(F)cccc2F)CC1` [Example 131 of PCT/GB2004/003179], for which the pIC50 was 8.66 against Activated CDK2/CyclinA, 7.85 at GSK3-β and 6.13 with HCT-116 cell line. In addition, the “selectivity for CDK inhibition over GSK3β” value on Activated CDK2/CyclinA is listed as ~6 fold.
Regarding `CS(=O)(=O)N1CCC(NC(=O)c2n[nH]cc2NC(=O)c2c(Cl)cccc2Cl)CC1` [Example 1, 4-(2,6-dichloro-benzoylamino)-1H-pyrazole-3-carboxylic acid (1-methanesulphonyl-piperidin-4-yl)-amide], the “in vitro kinase (CDK2) inhibitory activity compared to difluoro-analogue” value on Activated CDK2/CyclinA is listed as “greater in vitro kinase (CDK2) inhibitory activity”. For the same compound, in data set [1] (nude mice xenografts), the “tumour biomarkers (phosphorylation of CDK substrates e.g. retinoblastoma protein)” value is on record as “inhibition of the tumour biomarkers”. The “tumour growth in xenografts” value in data set [1] (nude mice, sub-cutaneous xenografts) is “inhibition of tumour growth”. The compound further yielded a bioavailability in data set [2] of 40 to 50%. The pIC50 in the data set on HCT-116 cell line is 6.96. Also, the “anti-proliferative potency on HCT-116 compared to difluoro-analogue” value in the data set with HCT-116 cell line (human colon cancer HCT-116 cell line) was 6-7 fold.

The bioavailability is dose-corrected exposure relative to a reference, in per cent. High values mean much systemic uptake, low ones little systemic uptake.
